Experimental data published in patent US12606585B2, “Fluorinated hexoses” (Stichting Radboud Universiteit, priority 2020, dated 2026).
Where two headings read alike, the source gives them in different places.

How the values were obtained:
Format in all cases: cell-based
THP-1 cells [1] = test: Lectin staining for fucose expression inhibition, THP-1 cells; details: 3 days, 0-512 μM compound, flow cytometry
Description: (§1) THP-1 cells (TIB-202, ATCC) and Jurkat cells (TIB-152, ATCC) were cultured in RPMI-1640 medium containing 2 mM Glutamine and 25 mM HEPES (Gibco™, Life Technologies), supplemented with 10% v/v heat-inactivated fetal bovine serum (FBS) (Gibco™, Life Technologies) and 1× antibiotic-antimycotic solution (100 units/mL of penicillin, 100 μg/mL of streptomycin, and 0.25 μg/mL Fungizone) (Gibco™, Life Technologies) and passaged every 3-4 day by seeding a fraction of 0.5-2 min cells of the culture per 10 ml medium. EL-4 cells (TIB-39, ATCC) were cultured in DMEM medium (Gibco™, Life Technologies), supplemented with 10% v/v heat-inactivated fetal bovine serum (FBS) (Gibco™, Life Technologies), 1× antibiotic-antimycotic solution (100 units/mL of penicillin, 100 μg/mL of streptomycin, and 0.25 μg/mL Fungizone) (Gibco™, Life Technologies) and 2 mM Glutamine (Gibco™, Life Technologies) and passaged every 2-4 days by seeding a fraction of 0.5-1 min cells of the culture per 10 ml medium. For passaging a T75 flask (Corning), medium was removed and the monolayer was washed with 10 ml PBS pH 7.2 without CaCl2) and MgCl2 (Gibco™, Life Technologies) before adding 3.5 ml 0.05% trypsin/EDTA solution (Gibco™ 5 Life Technologies) in PBS. Cells were incubated at rt for 30-45 s after which the trypsin/EDTA-solution was removed. Cells were incubated for an additional 2 min at 37° C., 5.0% CO2 and resuspended in cell culture medium. Cells were then seeded at ˜40.000 cells/cm^2 in new culture flasks. All cells were cultured at 37° C., 5% CO2 in a humidified incubator.
(§2) Protocol below was repeated until n>=3 for each compounds using cells at different passage numbers. Cells were cultured in medium containing different concentrations of unnatural sugar derivatives on either 24-wells plates (adherent cell lines; 80,000 cells per well) (Corning) or 96-wells plates (suspension cell lines; 13,000-20,000 cells per well) (Thermo Scientific). DMSO, at same dilution as the unnatural sugar derivative stock solutions, was used as a positive control for lectin staining; P-Fuc2F was used for all concentrations as negative control. Cells were incubated for three days at 37° C. and 5% CO2 in a humidified incubator. Cells were harvested and washed with 100 μl 1×CF-blocking buffer (Vector Laboratories Inc.) containing 1 mM CaCl2) and 1 mM MgCl2. The cells were then resuspended in 50 μl 0.5 μg/ml of 0.5 ng/ml biotinylated lectin in 1× carbo-free blocking buffer and incubated at 4-8° C. for 45-60 min. Cells were washed with 3×100 μl PBA (PBS containing 1% v/v FBS and 0.1% w/w sodium azide), incubated with 40 μl 1 μg/ml Streptavidin-phycoerythrin conjugate (Invitrogen, eBioscience) in PBA for 10-15 min at 4-8° C. Cells were then washed again with 3×100 μl PBA, resuspended in PBA and fluorescence was measured with a flow cytometer (Beckman & Dickinson FACS-Calibur). Each replicate for each condition with >10,000 gated events. Data was processed using FlowJo (FlowJo LLC). Percentage of lectin binding was obtained by normalizing the MFI values to the MFI values of the respective DMSO control.
(§3) Three cell lines (THP-1, Jurkat, EL4) were cultured for 3 days with 0-512 μM compound. The cells were stained with two fucose specific lectins (AAL & AOL) and analysed by flow cytometry, presented as mean percentage lectin binding normalized to control (n=3).

EL4 cells = test: Lectin staining for fucose expression inhibition, EL4 cells; details: 3 days, 0-512 μM compound, flow cytometry
Description: as §1, §2, §3

THP-1 cells [2] = test: Onset and recovery of inhibition; details: for effect on lectin binding (FIG. 5): AAL or AOL lectin
Description: Cells were cultured in medium containing different concentrations of unnatural sugar derivatives on 96-wells plates (suspension cell lines; 13,000-20,000 cells per well) (Thermo Scientific). DMSO, at same dilution as the unnatural sugar derivative stock solutions, was used as a positive control for lectin staining; P-Fuc2F was used for all concentrations as negative control. Cells were incubated for eight days at 37° C. and 5% CO2 in a humidified incubator. Medium was changed after three and six days of incubation with cell culture medium without unnatural sugar derivatives. Every day cells were harvested and washed with 100 μl 1× CF-blocking buffer (Vector Laboratories Inc.) containing 1 mM CaCl2) and 1 mM MgCl2. The cells were then resuspended in 50 μl 0.5 μg/ml of either 0.5 ng/ml biotinylated AAL, AOL, SNA, MAL-II, WGA, LCA, PSA, PNA, PHA-L or GSL-1 lectin in 1× carbo-free blocking buffer or with 50 μl of non-supplemented 1× carbo-free blocking buffer and incubated at 4-8° C. for 45-60 min. Cells were washed with 3×100 μl PBA (PBS containing 1% v/v FBS and 0.1% w/w sodium azide), incubated with 40 μl 1 μg/ml Streptavidin-phycoerythrin conjugate (Invitrogen, eBioscience) in PBA for 10-15 min at 4-8° C. Cells were then washed again with 3×100 μl PBA, resuspended in PBA and fluorescence was measured with a flow cytometer (Beckman & Dickinson FACS-Calibur). Each replicate for each condition with >10,000 gated events. Data was processed using FlowJo (FlowJo LLC). Percentage of lectin binding was obtained by normalizing the MFI values to the MFI values of the respective DMSO control.
The onset of inhibition and duration for recovery was evaluated on THP-1 cells with 100 and 10 μM compound using the AAL lectin (FIG. 5). At 100 μM concentration compounds 9 and 10 inhibit fucosylation after 1 day and to over 50% after 3 days. Fucosylation was fully recovered to normal 5 levels on day 6. […] Similar results were obtained using the AOL lectin.

Jurkat cells = test: Lectin staining for fucose expression inhibition, Jurkat cells; details: 3 days, 0-512 μM compound, flow cytometry
Description: as §1, §2, §3

THP-1 cells [3] = test: Lectin specificity: total cell surface glycosylation with additional lectins; details: 100 μM and 10 μM, three days
Description: Protocol below was repeated until n>=3 for each compounds using cells at different passage numbers. Culture medium was prepared in 96-wells plates (Thermo Scientific). For every unnatural sugar derivative, 11 wells containing 100 μM of unnatural sugar derivatives and 11 wells containing 10 μM of the unnatural sugar derivatives were prepared. DMSO, at same dilution as the tested probes, was used as a positive control for lectin staining. THP-1 Cells were cultured in the plates (20,000 cells per well) and the cells were incubated for three days at 37° C. and 5% CO2. Cells were harvested and washed with 100 μl 1×CF-blocking buffer (Vector Laboratories Inc.) containing 1 mM CaCl2) and 1 mM MgCl2. The cells were then resuspended in 50 μl 0.5 μg/ml of either 0.5 ng/ml biotinylated AAL, AOL, SNA, MAL-II, WGA, LCA, PSA, PNA, PHA-L or GSL-1 lectin in 1× carbo-free blocking buffer or with 50 μl of non-supplemented 1× carbo-free blocking buffer and incubated at 4-8° C. for 45-60 min. Cells were washed with 3×100 μl PBA (PBS containing 1% v/v FBS and 0.1% w/w sodium azide), incubated with 40 μl 1 μg/ml Streptavidin-phycoerythrin conjugate (Invitrogen, eBioscience) in PBA for 10-15 min at 4-8° C. Cells were then washed again with 3×100 μl PBA, resuspended in PBA and fluorescence was measured with a flow cytometer (Beckman & Dickinson FACS-Calibur). Each replicate for each condition with >10,000 gated events. Data was processed using FlowJo (FlowJo LLC). Percentage of lectin binding was obtained by normalizing the MFI values to the MFI values of the respective DMSO control.
Compounds 9 & 10 are mannose-1-phosphate derivatives, so other glycosylation pathways such as mannosylation could be imagined to be affected. Having established the ability to inhibit cellular fucosylation with AAL and AOL lectins, the effect on total cell surface glycosylation was evaluated using additional lectins (FIG. 4A and FIG. 4B). N-glycans consist of a biantennary mannose containing backbone, recognized by WGA, and can be branched recognized by L-Pha. These branches can be terminated with galactose, recognized by PNA, or α2,6- and α2,3-linked sialic acids recognized by SNA and MAL-II, respectively. […] The decrease in binding for these lectins can thus be attributed to defucosylation as confirmed by a decrease in AAL and AOL binding and no effect on WGA binding.

[4] = Homo sapiens, 72 h, AAL lectin, n=3, read-out: EC50 for fucose expression inhibition, THP-1 AAL
[5] = Homo sapiens, 72 h, AOL lectin, n=3, read-out: EC50 for fucose expression inhibition, THP-1 AOL
[6] = Mus musculus, 72 h, AAL lectin, n=3, read-out: EC50 for fucose expression inhibition, EL4 AAL
[7] = Mus musculus, 72 h, AOL lectin, n=3, read-out: EC50 for fucose expression inhibition, EL4 AOL
[8] = Homo sapiens, 72 h, AAL lectin, n=3, read-out: EC50 for fucose expression inhibition, Jurkat AAL
[9] = Homo sapiens, 72 h, AOL lectin, n=3, read-out: EC50 for fucose expression inhibition, Jurkat AOL

| SMILES | EC50 (THP-1 cells [1]; [4]) | EC50 (THP-1 cells [1]; [5]) | EC50 (EL4 cells; [6]) | EC50 (EL4 cells; [7]) | effect on lectin binding (FIG. 5) (THP-1 cells [2]; 100 μM) | EC50 (Jurkat cells; [8]) | EC50 (Jurkat cells; [9]) | onset of fucosylation inhibition (THP-1 cells [2]; 100 μM, AAL lectin) | inhibition at 100 µM (THP-1 cells [2]; Homo sapiens, 72 h, 100 μM, AAL lectin, read-out: inhibition of fucosylation after 3 days) | effect on binding of WGA, L-Pha, PNA, SNA and MAL-II lectins (THP-1 cells [3]) | LCA and PSA lectin binding (THP-1 cells [3]; lectins restricted to α1,6-linked core fucosylation) | EC50 (THP-1 cells [1]; AAL lectin, n=3, read-out: EC50 for fucose expression inhibition, THP-1 AAL) | EC50 (THP-1 cells [1]; AOL lectin, n=3, read-out: EC50 for fucose expression inhibition, THP-1 AOL) | EC50 (EL4 cells; AAL lectin, n=3, read-out: EC50 for fucose expression inhibition, EL4 AAL) | EC50 (EL4 cells; AOL lectin, n=3, read-out: EC50 for fucose expression inhibition, EL4 AOL) | inhibition of fucosylation at 10 μM (THP-1 cells [2]; 10 μM, AAL lectin) | effect on lectin binding (FIG. 5) (THP-1 cells [2]; 10 μM) | EC50 (Jurkat cells; AAL lectin, n=3, read-out: EC50 for fucose expression inhibition, Jurkat AAL) | EC50 (Jurkat cells; AOL lectin, n=3, read-out: EC50 for fucose expression inhibition, Jurkat AOL) |
| --- | --- | --- | --- | --- | --- | --- | --- | --- | --- | --- | --- | --- | --- | --- | --- | --- | --- | --- | --- |
| CC(=O)OCC1O[C@H](OP(=O)(OCCSC(C)=O)OCCSC(C)=O)C(OC(C)=O)C(OC(C)=O)[C@@H]1OC(C)=O (stereo partly drawn) [P-D-Man-1P (6), Di-(S-acetyl-2-thioethyl)-(2,3,4,6-tetra-O-acetyl-α-D-mannopyranoside) phosphate] | > 500 µM | > 500 µM | > 500 µM | > 500 µM | no effect | > 500 µM | > 500 µM |  |  |  |  |  |  |  |  |  |  |  |  |
| CC(=O)OC1C(OC(C)=O)[C@H](OC(C)=O)C(C(F)F)O[C@@H]1OP(=O)(OCCSC(C)=O)OCCSC(C)=O (stereo partly drawn) [P-D-Rha6F2-1P (9), Di-(S-acetyl-2-thioethyl)-(2,3,4-tri-O-acetyl-6,6-difluoro-α-D-rhamnopyranoside) phosphate] | 1.97 µM | 5.26 µM | 14.2 µM | 38.2 µM |  | 5.93 µM | 4.1 µM | 1 days | > 50% | No significant effect | decreased binding |  |  |  |  |  |  |  |  |
| CC(=O)OC1O[C@@H](C)[C@@H](OC(C)=O)[C@@H](OC(C)=O)[C@@H]1F (stereo partly shown) [P-Fuc2Feq, reference compound] |  |  |  |  |  |  |  |  |  |  |  | 44.9 µM | 30.7 µM | > 500 µM | > 500 µM | no inhibition | no longer discernible | 115 µM | 121 µM |
